These results are taken from ChEMBL document CHEMBL1127253, “Synthesis and in vitro gastrointestinal motility enhancing activity of 3-aryl-2-imidazolidinylidene propanedinitrile derivatives” (Bioorg Med Chem Lett, 1994).

In assay [1] the target is T1, Acetylcholinesterase (Rattus norvegicus, UniProt P37136).
T1 sequence (P37136 whole entry): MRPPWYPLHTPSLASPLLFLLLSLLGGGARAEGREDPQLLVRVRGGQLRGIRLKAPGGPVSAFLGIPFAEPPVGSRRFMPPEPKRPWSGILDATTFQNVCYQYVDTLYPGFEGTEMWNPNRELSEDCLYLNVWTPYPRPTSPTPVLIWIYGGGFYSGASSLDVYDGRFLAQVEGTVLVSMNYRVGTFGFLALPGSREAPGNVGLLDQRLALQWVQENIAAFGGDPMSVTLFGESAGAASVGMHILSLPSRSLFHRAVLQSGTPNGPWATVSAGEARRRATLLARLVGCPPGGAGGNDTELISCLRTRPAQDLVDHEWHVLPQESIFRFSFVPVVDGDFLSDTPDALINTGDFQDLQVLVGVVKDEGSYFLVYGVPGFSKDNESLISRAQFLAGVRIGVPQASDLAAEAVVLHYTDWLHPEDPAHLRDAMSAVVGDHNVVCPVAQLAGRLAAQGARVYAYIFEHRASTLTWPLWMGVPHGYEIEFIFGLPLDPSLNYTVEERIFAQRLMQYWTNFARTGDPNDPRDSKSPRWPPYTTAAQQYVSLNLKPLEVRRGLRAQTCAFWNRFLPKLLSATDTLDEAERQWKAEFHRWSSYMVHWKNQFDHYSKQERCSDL
The assay can be described thus: Inhibitory activity against acetylcholinesterase (AChE) from rat brain was determined.

The species named for assay [2] is Cavia porcellus. The assay can be described thus: In vitro gastrointestinal motility enhancing activity expressed as concentration of compound producing 30% potentiation of contractions induced by electrical stimulation in guinea pig. It is filed as functional.

Turning to `COc1ccc(N2CCN(CCNCc3ccc(CN4CCCCC4)o3)C2=C(C#N)C#N)cc1`, the IC50 (commonly the point on the concentration scale where inhibition reaches its midpoint) in assay [1] came out at 19 nM. Besides, the EC30 (as a rule, the concentration needed for an effect of 30%) in assay [2] was determined as 12 nM.

Turning to `Cc1cccc(N2CCN(CCNCc3ccc(CN4CCCCC4)o3)C2=C(C#N)C#N)c1`, in assay [1], the concentration for half-maximal inhibition (IC50) amounted to 13 nM. Moreover, in assay [2], the EC30 was 19 nM.

In assay [1], `COc1cccc(N2CCN(CCNCc3ccc(CN4CCCCC4)o3)C2=C(C#N)C#N)c1` showed an IC50 of 14 nM. Besides, the EC30 in assay [2] was found to be 14 nM.

Turning to `Cc1ccc(N2CCN(CCNCc3ccc(CN4CCCCC4)o3)C2=C(C#N)C#N)cc1`, in assay [1], the half-inhibitory concentration (IC50) amounted to 2.2 nM. In addition, the EC30 in assay [2] is 52 nM.

For `N#CC(C#N)=C1N(CCNCc2ccc(CN3CCCCC3)o2)CCN1c1ccccc1`, the concentration for half-maximal inhibition (IC50) in assay [1] is 14 nM. The concentration for an effect of 30% (EC30) in assay [2] came to 10 nM.

The compound `COc1ccccc1N1CCN(CCNCc2ccc(CN3CCCCC3)o2)C1=C(C#N)C#N` displayed an IC50 in assay [1] of 66 nM. In addition, the EC30 in assay [2] was determined as 490 nM.

Regarding `N#CC(C#N)=C1NCCN1CCNCc1ccc(CN2CCCCC2)o1`, half-maximal inhibition in assay [1] (IC50) was put at 30 nM. The EC30 in assay [2] amounted to 16 nM.
